In ChEMBL document CHEMBL1137131, “Synthesis and cytotoxicity of water soluble quaternary salt derivatives of camptothecin” (Bioorg Med Chem Lett, 2004):
Converted amounts (≈) assume the structure as drawn.

How the values were obtained:
Assay type in all cases: functional, cell-based
[1] = tested on: KB; assay: In vitro cytotoxicity against KB cell line (human epidermoid carcinoma of the nasopharynx) using MTT assay
[2] = tested on: HCT-8; assay: In vitro cytotoxicity against HCT-8 cell line (human colon cancer) using MTT assay
[3] = tested on: Bel-7402; assay: In vitro cytotoxicity against Bel7402 cell line (human liver cancer) using MTT assay

| Compound | IC50 [1] [µg/mL] | IC50 [2] [µg/mL] | IC50 [3] [µg/mL] |
| --- | --- | --- | --- |
| CC[C@@]1(O)C(=O)OCc2c1cc1n(c2=O)Cc2cc3c(CN(C)C)c(O)ccc3nc2-1.Cl [TOPOTECAN HYDROCHLORIDE] | 0.02 | 0.03 | 0.4 |
| CC[C@@]1(O)C(=O)OCc2c1cc1n(c2=O)Cc2cc3cc(OCCC[n+]4cccc(C(C)=O)c4)ccc3nc2-1 | 3.13 | 3.15 | 5 |
| CC[C@@]1(O)C(=O)OCc2c1cc1n(c2=O)Cc2cc3cc(OCC[n+]4cccc(C(=O)O)c4)ccc3nc2-1 | 0.31 | 0.27 | 5 |
| CC[C@@]1(O)C(=O)OCc2c1cc1n(c2=O)Cc2cc3cc(OCCC[n+]4cccc(CO)c4)ccc3nc2-1 | 0.31 | 0.34 | 2.87 |
| CC[C@@]1(O)C(=O)OCc2c1cc1n(c2=O)Cc2cc3cc(OCCC[n+]4ccccc4)ccc3nc2-1 | 0.03 | 0.03 | 0.44 |
| CC[C@@]1(O)C(=O)OCc2c1cc1n(c2=O)Cc2cc3cc(OCCC[n+]4cccc(O)c4)ccc3nc2-1 | 0.04 | 0.03 | 3.92 |
| CC[C@@]1(O)C(=O)OCc2c1cc1n(c2=O)Cc2cc3cc(OCC[n+]4ccccc4)ccc3nc2-1 | 0.33 | 0.45 | 3.53 |
| CC[C@@]1(O)C(=O)OCc2c1cc1n(c2=O)Cc2cc3cc(OCC[n+]4cccc(C)c4)ccc3nc2-1 | 0.63 | 1.42 | 0.47 |
| CC[C@@]1(O)C(=O)OCc2c1cc1n(c2=O)Cc2cc3cc(OCC[n+]4cccc(CO)c4)ccc3nc2-1 | 3.28 | 3.73 | 5 |
| CC[C@@]1(O)C(=O)OCc2c1cc1n(c2=O)Cc2cc3cc(OCC[n+]4cccc(F)c4)ccc3nc2-1 | 0.33 | 0.38 | 5 |
| CC[C@@]1(O)C(=O)OCc2c1cc1n(c2=O)Cc2cc3cc(OCCC[n+]4cccc(C(=O)O)c4)ccc3nc2-1 | 0.32 | 0.33 | 0.44 |
| CC[C@@]1(O)C(=O)OCc2c1cc1n(c2=O)Cc2cc3cc(OCC[n+]4cccc(O)c4)ccc3nc2-1 | 0.32 | 0.42 | 0.47 |
| CC[C@@]1(O)C(=O)OCc2c1cc1n(c2=O)Cc2cc3cc(OCC[n+]4cccc(C(C)=O)c4)ccc3nc2-1 | 3.21 | 3.01 | 5 |
| CC[C@@]1(O)C(=O)OCc2c1cc1n(c2=O)Cc2cc3ccccc3nc2-1 [CAMPTOTHECIN] | < 0.005 | < 0.005 | 2.72 (≈ 7.81 µM) |
| CC[C@@]1(O)C(=O)OCc2c1cc1n(c2=O)Cc2cc3cc(OCC[n+]4cccc(C=O)c4)ccc3nc2-1 | 0.34 | 0.35 | 3.73 |
| CC[C@@]1(O)C(=O)OCc2c1cc1n(c2=O)Cc2cc3cc(OCCC[n+]4cccc(C)c4)ccc3nc2-1 | < 0.005 | < 0.005 | 0.04 |
| CC[C@@]1(O)C(=O)OCc2c1cc1n(c2=O)Cc2cc3cc(OCCC[n+]4cccc(F)c4)ccc3nc2-1 | 3.4 | 2.02 | 5 |
| CC[C@@]1(O)C(=O)OCc2c1cc1n(c2=O)Cc2cc3cc(OCCC[n+]4cccc(C=O)c4)ccc3nc2-1 | 0.27 | 0.17 | 0.46 |
